A short description of series [1]: Photodecomposition of monatin in beverage model solution in PET container under D65 fluorescence lamp, HPLC. The class given is physicochemical. The following applies: D65 lamp 3000 lux, 165 hr. Here is the method: Temperature: 25° C. constant temperature room (forced circulation).
HPLC Analysis Conditions:
The pH of a beverage model solution, a (citric acid 2 g, sodium benzoate 0.045 g)/L solution, was adjusted with 8N sodium hydroxide. (2R, 4R)monatin potassium salt (25 mg) and various additives were dissolved in the adjusted beverage model solution (500 mL) and filled in PET containers. […] The solution was simultaneously filled in a 20 ml screw cap vial and left standing for the same time in the same constant temperature room under a light shield. These light exposure solutions and light shield solutions were subjected to HPLC analysis, and photodecomposition rates were calculated by the following formula: The photodecomposition rate (%)=(1−(mass % concentration of monatin in light exposure solution/mass % concentration of monatin in light shield solution))×100 […]

Series [2] can be described thus: Decomposition of monatin in solution by ultraviolet light (findings of the inventor). The class given is physicochemical. The following applies: solution state.

Turning to `N[C@@H](Cc1c[nH]c2ccccc12)C(=O)O` [Trp, tryptophan, reference compound], the photodecomposition rate was found to be 7.3% in series [1] (pH 2.8, 50 ppm); 6.0% in series [1] (pH 3.1, 50 ppm); 6.2% in series [1] (pH 3.5, 50 ppm); 5.5% in series [1] (pH 4, 50 ppm); 5.4% in series [1] (pH 4.5, 50 ppm); 12.5% in series [1] (pH 5.5, 50 ppm). For the same compound, the photodecomposition rate in series [1] (pH 6.5, 50 ppm) turned out to be 55.1%.
Regarding (2R,4S)monatin, in series [2], the “decomposition by ultraviolet light” value was “tend to be more easily decomposed by ultraviolet light than the other isomers”.
In the case of (2S,4R)monatin, the “decomposition by ultraviolet light” value in series [2] was “tend to be more easily decomposed by ultraviolet light than the other isomers”.
Consider `N[C@@H](C[C@@](O)(Cc1c[nH]c2ccccc12)C(=O)O)C(=O)O` [monatin], for which the photodecomposition rate is 52.5% in series [1] (pH 2.8, 50 ppm); 45.1% in series [1] (pH 3.1, 50 ppm); 27.6% in series [1] (pH 3.5, 50 ppm); 15.9% in series [1] (pH 4, 50 ppm); 10.2% in series [1] (pH 4.5, 50 ppm); 4.8% in series [1] (pH 5.5, 50 ppm). Also, in series [1] (pH 6.5, 50 ppm), the photodecomposition rate stood at 4.3%. Besides, the “decomposition by ultraviolet light” value in series [2] is recorded as “tends to decompose when exposed to ultraviolet light”.

Values taken from patent US7781005B2, “Sweetener composition” (Ajinomoto Co., Inc., priority 2004, dated 2010).
